Results from ChEMBL document CHEMBL4340548, “Pyridone-containing phenalenone-based photosensitizer working both under light and in the dark for photodynamic therapy” (Bioorg Med Chem, 2019).
Activity calls are given as the source filed them. The rule behind the calls is not given here.

Tests used:
[1] = tested on: HeLa; test: Photodynamic cytotoxicity in human HeLa cells assessed as reduction in cell viability incubated in blue light for 5 mins every 1.5 hrs for 8 repeated cycles further incubation under dark for 24 hrs by MTT assay; type: functional; conditions: light or radiation study
[2] = Induction of singlet oxygen generation in acetonitrile irradiated with blue light assessed as singlet oxygen quantum yield at 30 uM using ABDA by UV spectrophotometry; type: functional
[3] = Induction of singlet oxygen generation in water irradiated with blue light assessed as singlet oxygen quantum yield at 30 uM using ABDA by UV spectrophotometry; type: functional
[4] = Induction of singlet oxygen generation at 50 uM under irradiation incubated for 15 mins by 1H-NMR spectroscopy; type: functional
[5] = tested on: HeLa; test: Induction of apoptosis in human HeLa cells at 1 uM incubated for 3 hrs irradiated with blue light by DAPI-Annexin V-PE staining based confocal microscopic analysis; type: functional, cell-based
[6] = tested on: HeLa; test: Induction of ROS generation in human HeLa cells irradiated with blue light at 1 uM incubated for 30 mins in presence of sodium azide by DCFH-DA dye-based confocal microscopic analysis; type: functional, cell-based
[7] = tested on: HeLa; test: Induction of ROS generation in human HeLa cells irradiated with blue light at 1 uM incubated for 30 mins by DCFH-DA dye-based confocal microscopic analysis; type: functional, cell-based
[8] = tested on: HeLa; test: Induction of ROS generation in human HeLa cells under dark condition at 1 uM incubated for 30 mins at 37 degC by DCFH-DA dye-based confocal microscopic analysis; type: cell-based; conditions: 0.5 h
[9] = Induction of singlet oxygen generation at 50 uM under blue light irradiation at 60 degC by ABDA based singlet oxygen trap assay; type: functional
[10] = Induction of singlet oxygen generation at 50 uM under irradiation at 20 degC for 5 mins and dark at 37 degC fro 30 mins for several cycles by ABDA based singlet oxygen trap assay; type: functional
[11] = Photostability in acetonitrile assessed as decrease in absorbance of pyridone moiety at 50 uM irradiated with light for 2.5 hrs by UV spectrophotometry
[12] = Induction of singlet oxygen generation at 50 uM under dark condition at 37 degC by ABDA based singlet oxygen trap assay; type: functional
[13] = Induction of singlet oxygen generation at 50 uM under blue light irradiation at 25 degC by ABDA based singlet oxygen trap assay; type: functional
[14] = tested on: HeLa; test: Induction of apoptosis in human HeLa cells at 1 uM incubated for 3 hrs irradiated with blue light in presence of sodium azide by DAPI-Annexin V-PE staining based confocal microscopic analysis; type: functional, cell-based
[15] = Photostability in acetonitrile assessed as PPN-EPO formation at 50 uM irradiated with light for 2.5 hrs by UV spectrophotometry
[16] = Photostability in acetonitrile assessed as singlet oxygen formation by measuring pyridone moiety band at 50 uM at 37 degC irradiated with light for 2.5 hrs by UV spectrophotometry

O=C1C(c2ccc(CN3C(=O)C4C=CC3OO4)cc2)=Cc2cccc3cccc1c23 (centres undefined)
CC50 [1]: 0.0715 µM | Activity [2]: 0.71 | Activity [3]: 0.16

O=C1C(c2ccc(Cn3ccccc3=O)cc2)=Cc2cccc3cccc1c23
Activity [4]: Active | Activity [5]: Active | CC50 [1]: 0.0265 µM | Activity [6]: Active | Activity [7]: Active | Activity [8]: Non-Toxic | Activity [9]: Active | Activity [2]: 0.64 | Activity [10]: Active | Stability [11]: Unstable | Activity [3]: 0.12 | Activity [12]: Active | Activity [13]: inactive | Activity [14]: inactive | Stability [15]: Unstable | Stability [16]: Stable
